# Assays:
# late watergrass [1] = assay: Test Example 1: herbicidal activity, application before weed generation under submerged conditions (Table 16, symbol A); format: in vivo, late watergrass (Echinochloa oryzicola); conditions: amount of applied herbicide 320 g/ha
# Summary of the method: (§1)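 Submerged Wagner pots (alluvial soil, 4 cm water) sown with weed seeds and planted with 2.5-leaf rice seedlings; emulsifiable concentrate diluted in water applied to water surface on sowing day. Held in greenhouse at 25-30 °C; injury scored 0-5 by herbicidal rate after three weeks.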
# Japanese bulrush [2] = assay: Test Example 1: herbicidal activity, application before weed generation under submerged conditions (Table 16, symbol B); format: in vivo, Japanese bulrush (Schoenoplectus juncoides); conditions: amount of applied herbicide 320 g/ha
# Summary of the method: as §1
# late watergrass [3] = assay: Test Example 2: herbicidal activity, application during weed generation under submerged conditions (Table 17, symbol A); format: in vivo, late watergrass (Echinochloa oryzicola); conditions: AAH 320 g/ha; application during weed generation, submerged conditions
# Summary of the method: (§2)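 Alluvial soil in Wagner pots was flooded to 4 cm depth and sown with the three weeds together; pots were kept in a greenhouse at 25° C. to 30° C. At the one to two leaf stage, an emulsion formulation diluted in water to a set rate went onto the water surface; scored three weeks later.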
# Japanese bulrush [4] = assay: Test Example 2: herbicidal activity, application during weed generation under submerged conditions (Table 17, symbol B); format: in vivo, Japanese bulrush (Schoenoplectus juncoides); conditions: AAH 320 g/ha; application during weed generation, submerged conditions
# Summary of the method: as §2
# barnyard grass [5] = assay: Test Example 3: herbicidal effect by foliage application, Wagner pot (Table 18, symbol H); format: in vivo, barnyard grass (Echinochloa crus-galli)
# Summary of the method: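 Plants were sown in alluvial soil held under 0.1–0.5 cm standing water and grown 14 days in a greenhouse at 25–30 °C. An emulsifiable formulation, water-diluted to the set dose, was then sprayed onto the foliage, and effects were scored three weeks later using previously defined criteria.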
# green foxtail = assay: Test Example 4: herbicidal effect by soil treatment (Table 19, symbol G); format: in vivo, green foxtail (Setaria viridis); conditions: amount of applied herbicide 320 g/ha
# Summary of the method: (§3)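 Scoring uses the grading scale of an earlier test, three weeks post-application. Treatment consists of spraying a diluted emulsion formulation across the surface of sterilized diluvial soil in which seeds are buried near 1.5 cm deep; boxes are kept in a greenhouse between 25° C. and 30° C.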
# barnyard grass [6] = assay: Test Example 4: herbicidal effect by soil treatment (Table 19, symbol H); format: in vivo, barnyard grass (Echinochloa crus-galli); conditions: amount of applied herbicide 320 g/ha
# Summary of the method: as §3
# wild oat [7] = assay: Test Example 4: herbicidal effect by soil treatment (Table 19, symbol I); format: in vivo, wild oat (Avena fatua); conditions: amount of applied herbicide 320 g/ha
# Summary of the method: as §3
# blackgrass [8] = assay: Test Example 4: herbicidal effect by soil treatment (Table 19, symbol J); format: in vivo, blackgrass (Alopecurus myosuroides); conditions: amount of applied herbicide 320 g/ha
# Summary of the method: as §3
# Italian ryegrass [9] = assay: Test Example 4: herbicidal effect by soil treatment (Table 19, symbol K); format: in vivo, Italian ryegrass (Lolium multiflorum); conditions: amount of applied herbicide 320 g/ha
# Summary of the method: as §3
# chickweed = assay: Test Example 4: herbicidal effect by soil treatment (Table 19, symbol P); format: in vivo, common chickweed (Stellaria media); conditions: amount of applied herbicide 320 g/ha
# Summary of the method: as §3
# persian speedwell = assay: Test Example 4: herbicidal effect by soil treatment (Table 19, symbol R); format: in vivo, Persian speedwell (Veronica persica); conditions: amount of applied herbicide 320 g/ha
# Summary of the method: as §3
# wild oat [10] = assay: Test Example 5: herbicidal effect by foliage application, plastic box (Table 20, symbol I); format: in vivo, wild oat (Avena fatua); conditions: foliage application, 320 g/ha, three weeks after application
# Summary of the method: (§4)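 Post-emergence foliar test in sterilized diluvial soil. Compound applied as water-diluted emulsion at a predetermined rate to 14-day-old plants; evaluation at three weeks.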
# blackgrass [11] = assay: Test Example 5: herbicidal effect by foliage application, plastic box (Table 20, symbol J); format: in vivo, blackgrass (Alopecurus myosuroides); conditions: foliage application, 320 g/ha, three weeks after application
# Summary of the method: as §4
# Italian ryegrass [12] = assay: Test Example 5: herbicidal effect by foliage application, plastic box (Table 20, symbol K); format: in vivo, Italian ryegrass (Lolium multiflorum); conditions: foliage application, 320 g/ha, three weeks after application
# Summary of the method: as §4
# velvetleaf = assay: Test Example 5: herbicidal effect by foliage application, plastic box (Table 20, symbol M); format: in vivo, velvetleaf (Abutilon theophrasti); conditions: foliage application, 320 g/ha, three weeks after application
# Summary of the method: as §4
# [13] = amount of applied herbicide 320 g/ha
Compound,"Herbicidal effect, A: late watergrass (late watergrass [1])","Herbicidal effect, B: Japanese bulrush (Japanese bulrush [2])","herbicidal effect rating, A: late watergrass (late watergrass [3])","herbicidal effect rating, B: Japanese bulrush (Japanese bulrush [4])","Herbicidal effect on H (barnyard grass), foliage application (barnyard grass [5]; [13])","G: green foxtail, herbicidal effect grade (green foxtail)","H: barnyard grass, herbicidal effect grade (barnyard grass [6])","I: wild oat, herbicidal effect grade (wild oat [7])","J: blackgrass, herbicidal effect grade (blackgrass [8])","K: Italian ryegrass, herbicidal effect grade (Italian ryegrass [9])","P: chickweed, herbicidal effect grade (chickweed)","R: persian speedwell, herbicidal effect grade (persian speedwell)",herbicidal effect on wild oat (I) (wild oat [10]),herbicidal effect on blackgrass (J) (blackgrass [11]),herbicidal effect on Italian ryegrass (K) (Italian ryegrass [12]),herbicidal effect on velvetleaf (M) (velvetleaf),further results
COc1ccccc1-c1sc2c(Br)c(OC)ccc2c1-c1c(O)c(C)nn(C)c1=O [7-002],3 (Herbicidal rate of 40% or more and less than 70%),3 (Herbicidal rate of 40% or more and less than 70%),3 (Herbicidal rate of 40% or more and less than 70%),2 (Herbicidal rate of 20% or more and less than 40%),5 (Herbicidal rate of 90% or more (almost completely withered)),0 (Herbicidal rate of 5% or less (almost no effect)),2 (Herbicidal rate of 20% or more and less than 40%),0 (Herbicidal rate of 5% or less (almost no effect)),0 (Herbicidal rate of 5% or less (almost no effect)),0 (Herbicidal rate of 5% or less (almost no effect)),3 (Herbicidal rate of 40% or more and less than 70%),3 (Herbicidal rate of 40% or more and less than 70%),0 (Herbicidal rate of 5% or less (almost no effect)),0 (Herbicidal rate of 5% or less (almost no effect)),5 (Herbicidal rate of 90% or more (almost completely withered)),4 (Herbicidal rate of 70% or more and less than 90%),
Cc1nn(C)c(=O)c(-c2c(-c3ccc(OCC(C)C)cc3)oc3ccc(F)cc23)c1O [9-027],5 (Herbicidal rate of 90% or more (almost completely withered)),5 (Herbicidal rate of 90% or more (almost completely withered)),4 (Herbicidal rate of 70% or more and less than 90%),3 (Herbicidal rate of 40% or more and less than 70%),5 (Herbicidal rate of 90% or more (almost completely withered)),5 (Herbicidal rate of 90% or more (almost completely withered)),4 (Herbicidal rate of 70% or more and less than 90%),0 (Herbicidal rate of 5% or less (almost no effect)),4 (Herbicidal rate of 70% or more and less than 90%),4 (Herbicidal rate of 70% or more and less than 90%),1 (Herbicidal rate of 5% or more and less than 20%),5 (Herbicidal rate of 90% or more (almost completely withered)),4 (Herbicidal rate of 70% or more and less than 90%),5 (Herbicidal rate of 90% or more (almost completely withered)),5 (Herbicidal rate of 90% or more (almost completely withered)),5 (Herbicidal rate of 90% or more (almost completely withered)),
CCOc1ccccc1-c1sc2cc(C)c(C)cc2c1-c1c(O)c(C)nn(C)c1=O [5-094],4 (Herbicidal rate of 70% or more and less than 90%),4 (Herbicidal rate of 70% or more and less than 90%),2 (Herbicidal rate of 20% or more and less than 40%),3 (Herbicidal rate of 40% or more and less than 70%),,4 (Herbicidal rate of 70% or more and less than 90%),1 (Herbicidal rate of 5% or more and less than 20%),0 (Herbicidal rate of 5% or less (almost no effect)),1 (Herbicidal rate of 5% or more and less than 20%),3 (Herbicidal rate of 40% or more and less than 70%),1 (Herbicidal rate of 5% or more and less than 20%),3 (Herbicidal rate of 40% or more and less than 70%),1 (Herbicidal rate of 5% or more and less than 20%),4 (Herbicidal rate of 70% or more and less than 90%),5 (Herbicidal rate of 90% or more (almost completely withered)),4 (Herbicidal rate of 70% or more and less than 90%),herbicidal effect on barnyard grass (H) (barnyard grass [5]; 320 g/ha): 5 (Herbicidal rate of 90% or more (almost completely withered))
"COCCOc1ccc(-c2oc3ccccc3c2-c2c(O)c(C)nn(C)c2=O)cc1 [Compound No. 8-007, 5-hydroxy-4-(2-(4-(2-methoxyethoxy)phenyl)benzofuran-3-yl)-2,6-dimethylpyridazin-3-(2H)-one]",5 (Herbicidal rate of 90% or more (almost completely withered)),5 (Herbicidal rate of 90% or more (almost completely withered)),5 (Herbicidal rate of 90% or more (almost completely withered)),4 (Herbicidal rate of 70% or more and less than 90%),5 (Herbicidal rate of 90% or more (almost completely withered)),5 (Herbicidal rate of 90% or more (almost completely withered)),5 (Herbicidal rate of 90% or more (almost completely withered)),0 (Herbicidal rate of 5% or less (almost no effect)),3 (Herbicidal rate of 40% or more and less than 70%),4 (Herbicidal rate of 70% or more and less than 90%),0 (Herbicidal rate of 5% or less (almost no effect)),2 (Herbicidal rate of 20% or more and less than 40%),1 (Herbicidal rate of 5% or more and less than 20%),5 (Herbicidal rate of 90% or more (almost completely withered)),5 (Herbicidal rate of 90% or more (almost completely withered)),5 (Herbicidal rate of 90% or more (almost completely withered)),
CCOc1ccccc1-c1sc2ccc(F)cc2c1-c1c(O)c(CC)nn(C)c1=O [2-416],3 (Herbicidal rate of 40% or more and less than 70%),3 (Herbicidal rate of 40% or more and less than 70%),2 (Herbicidal rate of 20% or more and less than 40%),3 (Herbicidal rate of 40% or more and less than 70%),,,,,,,,,,,,,"herbicidal effect on H: barnyard grass (barnyard grass [5]; [13]): 5 (Herbicidal rate of 90% or more (almost completely withered)); herbicidal effect, G: green foxtail (green foxtail): 0 (Herbicidal rate of 5% or less (almost no effect)); herbicidal effect, H: barnyard grass (barnyard grass [6]): 0 (Herbicidal rate of 5% or less (almost no effect)); herbicidal effect, I: wild oat (wild oat [7]): 0 (Herbicidal rate of 5% or less (almost no effect)); herbicidal effect, J: blackgrass (blackgrass [8]): 0 (Herbicidal rate of 5% or less (almost no effect)); herbicidal effect, K: Italian ryegrass (Italian ryegrass [9]): 0 (Herbicidal rate of 5% or less (almost no effect)); herbicidal effect, P: chickweed (chickweed): 2 (Herbicidal rate of 20% or more and less than 40%); herbicidal effect, R: persian speedwell (persian speedwell): 0 (Herbicidal rate of 5% or less (almost no effect)); I: wild oat, herbicidal effect grade (wild oat [10]): 0 (Herbicidal rate of 5% or less (almost no effect)); J: blackgrass, herbicidal effect grade (blackgrass [11]): 0 (Herbicidal rate of 5% or less (almost no effect)); K: Italian ryegrass, herbicidal effect grade (Italian ryegrass [12]): 0 (Herbicidal rate of 5% or less (almost no effect)); M: velvetleaf, herbicidal effect grade (velvetleaf): 3 (Herbicidal rate of 40% or more and less than 70%)"

# From patent US20230085307A1, “PYRIDAZINONE COMPOUND AND HERBICIDE” (NISSAN CHEMICAL CORPORATION, priority 2019, published 2023)
